Experimental data published in US20220163532A1, “NUCLEAR-DERIVED EXOSOMES AND METHODS OF USE THEREOF” (Board of Regents, The University of Texas System, priority 2019, published 2022).

How the values were obtained:
Format in all cases: cell-based, human
[1] = test system: OVCAR-5 and OVCAR-8 cells; assay: MN quantification in ovarian cancer cells treated with genotoxic drugs (IF, Lamin A/C); details: topotecan 10 nM or olaparib 20 μM, vs DMSO
Procedure: IF experiments and MN quantification. Cells were plated at a density of 5×10^4 cells on sterile, 0.17-mm-thick coverslips (12-548-A, Thermo Fisher Scientific) placed at the bottom of six-well plates. The next day, cells were treated for 24 hours with either vehicle control dimethyl sulfoxide (DMSO; 1:1000 dilution; D2650, Sigma-Aldrich), 20 μM olaparib (O-9201, LC Laboratories), or 10 nM topotecan (T2705-50MG, Sigma-Aldrich). After 24 hours, the cells were washed with PBS and refed with the appropriate cell culture medium to grow for another 48 hours, for a total time of 72 hours after initial plating on the coverslips.
The drug-treated cells were first washed three times with PBS, fixed with 4% paraformaldehyde (PFA; 50-980-487, Thermo Fisher Scientific) diluted in PBS, and incubated at RT for 15 min with light rocking. […] Last, cells on coverslips were then washed four times with PBS and mounted on slides using ProLong Diamond Antifade Mountant (P36961, Thermo Fisher Scientific) and imaged with a Leica fluorescence microscope (Leica DM4000 M LED; Leica Microsystems) or an Andor Revolution XDi WD Spinning Disk Confocal microscope. For MN quantification, the number of MN in each 40× field was counted using 10 fields per sample. […]

[2] = test system: OVCAR-5 and OVCAR-8 cells; assay: DNA-positive exosomes (nExo) from drug-treated ovarian cancer cells by imaging flow cytometry; details: topotecan 10 nM or olaparib 20 μM, parental cells treated 48 hours, vs DMSO
Procedure: (§1) Isolation of exosomes. The isolation method for exosomes that was used in this study followed the standard methods of the International Society of Extracellular Vesicles (Witwer et al., 2013). Cell lines described above were grown in the corresponding medium described above until 60 to 70% confluence was achieved. Cells were then washed twice with phosphate-buffered saline (PBS) and grown in corresponding medium containing 1% exosome-free FBS (EXO-FBS-250A-1, System Biosciences) plus 0.1% gentamicin for 48 hours. For exosome isolation, the harvested medium underwent serial centrifugation. First, the medium was spun down at 500g for 10 min to pellet any floating cells. Next, the supernatant was collected and spun down at 2000g for 30 min to pellet any residual cell debris. The resulting supernatant was then filtered through a 0.22-μm filter (SCGPUO5RE and SLGP033RS, Millipore-Sigma) to remove any remaining large vesicles. […] Exosome concentration and quantity were determined using NTA with a NanoSight NS300 instrument (Malvern Panalytical).
Exosome staining for imaging flow cytometry and analysis. For quantitative analysis and imaging flow cytometry of exosomes, the method described by Erdbrugger et al. (2014) using an Amnis ImageStreamX MarkII analyzer was adapted. […]

ovarian cancer cells = assay: Nuclear proteins in exosomes from drug-treated ovarian cancer cells (Western blot); details: topotecan 10 nM or olaparib 20 μM
Procedure: as §1, with “vesicles. After filtration, the medium was spun down at 40,000 rpm for 2 hours at 4° C. in an ultracentrifuge (Optima XE, Beckman Coulter) with a Ti 45 fixed-angle rotor (339160, Beckman Coulter).” for “vesicles.”
Western blotting. […] Protein concentration was determined using the Micro BCA Protein Assay Kit (23235, Thermo Fisher Scientific) according to the manufacturer's protocol. […]

## O=C(c1cc(Cc2n[nH]c(=O)c3ccccc23)ccc1F)N1CCN(C(=O)C2CC2)CC1 [olaparib]
[1]
  number of MN: increased significantly
[2]
  population of exosomes containing gDNA (proportion of nExo secreted): increased
Ovarian cancer cells
  population of exosomes containing nuclear proteins: increased
